ChEMBL document CHEMBL4138084, “Structure-activity relationship study of the tumour-targeting peptide A20FMDV2 via modification of Lys16, Leu13, and N- and/or C-terminal functionality” (Eur J Med Chem, 2017)
Active and inactive are the calls of the source. No cut-off for these calls is given here.

Key:
Integrin alpha-V/beta-6 [1] = target: T1, Integrin alpha-V/beta-6 (Homo sapiens, UniProt P06756+P18564); assay: Binding affinity to alphav/beta6 integrin in human A375Pbeta6 cells assessed as drug internalization at 100 nM after 15 mins by flow cytometric analysis relative to biotinylated A20FMDV2; type: ADME, cell-based; conditions: 0.25 h, 0.1 µM
Target sequence in this assay (P06756 31-889 limits assumed): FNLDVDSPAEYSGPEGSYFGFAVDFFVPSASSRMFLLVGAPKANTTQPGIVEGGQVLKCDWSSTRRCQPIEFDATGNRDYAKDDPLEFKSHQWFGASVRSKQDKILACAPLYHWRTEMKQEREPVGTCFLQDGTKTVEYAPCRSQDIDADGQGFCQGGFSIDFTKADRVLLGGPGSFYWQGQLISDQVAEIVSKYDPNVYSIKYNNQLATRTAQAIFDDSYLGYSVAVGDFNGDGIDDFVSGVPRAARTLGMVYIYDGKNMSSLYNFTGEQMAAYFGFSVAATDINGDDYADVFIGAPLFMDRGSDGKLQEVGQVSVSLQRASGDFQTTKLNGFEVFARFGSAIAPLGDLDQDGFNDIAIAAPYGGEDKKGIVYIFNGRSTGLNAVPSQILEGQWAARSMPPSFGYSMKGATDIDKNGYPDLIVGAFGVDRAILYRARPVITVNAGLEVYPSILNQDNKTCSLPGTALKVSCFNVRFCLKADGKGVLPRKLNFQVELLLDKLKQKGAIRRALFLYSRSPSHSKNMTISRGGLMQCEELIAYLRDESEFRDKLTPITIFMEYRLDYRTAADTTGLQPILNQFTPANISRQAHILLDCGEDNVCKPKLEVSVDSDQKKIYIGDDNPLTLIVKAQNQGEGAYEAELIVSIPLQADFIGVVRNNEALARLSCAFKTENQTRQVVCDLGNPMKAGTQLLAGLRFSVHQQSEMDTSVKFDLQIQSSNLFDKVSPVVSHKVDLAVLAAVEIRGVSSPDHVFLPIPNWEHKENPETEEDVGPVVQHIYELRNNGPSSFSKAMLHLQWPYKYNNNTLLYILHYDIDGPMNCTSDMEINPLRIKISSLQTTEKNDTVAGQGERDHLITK
Target sequence in this assay (P06756 891-1048 limits assumed): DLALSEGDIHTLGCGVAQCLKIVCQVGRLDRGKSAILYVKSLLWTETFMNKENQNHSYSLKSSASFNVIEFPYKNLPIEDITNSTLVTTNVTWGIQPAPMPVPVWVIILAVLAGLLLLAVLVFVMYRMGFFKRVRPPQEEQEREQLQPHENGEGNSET
Target sequence in this assay (P18564 22-788 limits assumed): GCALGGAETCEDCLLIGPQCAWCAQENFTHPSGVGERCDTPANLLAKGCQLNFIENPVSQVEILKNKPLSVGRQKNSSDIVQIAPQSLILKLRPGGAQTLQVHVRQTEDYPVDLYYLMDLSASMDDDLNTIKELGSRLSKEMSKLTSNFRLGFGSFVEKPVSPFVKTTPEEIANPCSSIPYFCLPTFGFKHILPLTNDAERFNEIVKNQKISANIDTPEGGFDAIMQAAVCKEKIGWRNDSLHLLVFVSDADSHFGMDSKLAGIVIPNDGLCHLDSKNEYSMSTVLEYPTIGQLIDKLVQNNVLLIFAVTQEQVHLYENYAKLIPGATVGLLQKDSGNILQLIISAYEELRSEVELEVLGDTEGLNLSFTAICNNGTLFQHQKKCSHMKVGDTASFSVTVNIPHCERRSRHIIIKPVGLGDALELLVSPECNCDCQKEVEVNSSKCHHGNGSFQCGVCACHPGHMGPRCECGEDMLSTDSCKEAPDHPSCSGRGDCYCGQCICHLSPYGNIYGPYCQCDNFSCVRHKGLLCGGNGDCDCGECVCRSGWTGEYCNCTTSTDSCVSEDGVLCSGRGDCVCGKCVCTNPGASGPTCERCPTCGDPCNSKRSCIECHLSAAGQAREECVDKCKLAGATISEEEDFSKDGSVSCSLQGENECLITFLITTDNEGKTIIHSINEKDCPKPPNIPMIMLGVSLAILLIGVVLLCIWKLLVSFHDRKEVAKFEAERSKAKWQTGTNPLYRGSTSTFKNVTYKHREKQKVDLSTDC

Integrin alpha-V/beta-6 [2] = target: T1, Integrin alpha-V/beta-6; assay: Binding affinity to alphav/beta6 integrin in human A375Pbeta6 cells at 100 nM after 15 mins by flow cytometric analysis relative to biotinylated A20FMDV2; type: cell-based
[3] = Drug uptake in human A375PPuro cells at 1000 nM after 15 mins by flow cytometric analysis; type: ADME, cell-based; conditions: 0.25 h, 1 µM
[4] = system: Integrin alpha-V/beta-1 (Homo sapiens); assay: Binding affinity alphav/beta1 integrin in human A375PPuro cells at 1000 nM after 15 mins by flow cytometric analysis
[5] = target: Integrin alpha-V/beta-5 (Homo sapiens) (UniProt P06756+P18084); assay: Binding affinity alphav/beta5 integrin in human A375PPuro cells at 1000 nM after 15 mins by flow cytometric analysis; type: cell-based
[6] = target: Integrin alpha-V/beta-8 (Homo sapiens) (UniProt P06756+P26012); assay: Binding affinity alphav/beta8 integrin in human A375PPuro cells at 1000 nM after 15 mins by flow cytometric analysis; type: cell-based

CC(C)C[C@H](NC(=O)[C@H](CC(=O)O)NC(=O)CNC(=O)[C@H](CCCNC(=N)N)NC(=O)[C@H](CC(C)C)NC(=O)[C@H](CC(N)=O)NC(=O)[C@@H]1CCCN1C(=O)[C@@H](NC(=O)[C@H](CCCCNC(=O)CCCC[C@@H]1SC[C@@H]2NC(=O)N[C@@H]21)NC(=O)[C@@H](N)CC(N)=O)C(C)C)C(=O)N[C@@H](CCC(N)=O)C(=O)N[C@H](C(=O)N[C@@H](CC(C)C)C(=O)N[C@@H](C)C(=O)N[C@@H](CCC(N)=O)C(=O)N(C)[C@@H](CCCCN)C(=O)N[C@H](C(=O)N[C@@H](C)C(=O)N[C@@H](CCCNC(=N)N)C(=O)N[C@H](C(=O)O)[C@@H](C)O)C(C)C)C(C)C
fold change (FC) (Integrin alpha-V/beta-6 [1]): 0.89 | fold change (FC) (Integrin alpha-V/beta-6 [2]): 0.37 | Drug uptake [3]: Not Active

CC(C)C[C@H](NC(=O)[C@H](CC(=O)O)NC(=O)CNC(=O)[C@H](CCCNC(=N)N)NC(=O)[C@H](CC(C)C)NC(=O)[C@H](CC(N)=O)NC(=O)[C@@H]1CCCN1C(=O)[C@@H](NC(=O)[C@H](CCCCNC(=O)CCCC[C@@H]1SC[C@@H]2NC(=O)N[C@@H]21)NC(=O)[C@@H](N)CC(N)=O)C(C)C)C(=O)N[C@@H](CCC(N)=O)C(=O)N[C@H](C(=O)N[C@@H](CC(C)C)C(=O)N[C@@H](C)C(=O)N[C@@H](CCC(N)=O)C(=O)N[C@H](CCCCN)C(=O)N[C@H](C(=O)N[C@@H](C)C(=O)N[C@@H](CCCNC(=N)N)C(=O)N[C@H](C(=O)O)[C@@H](C)O)C(C)C)C(C)C
fold change (FC) (Integrin alpha-V/beta-6 [1]): 0.78 | fold change (FC) (Integrin alpha-V/beta-6 [2]): 1.11 | Drug uptake [3]: Not Active

CC(=O)N(C(=O)CN(CCN(CCN(CC(=O)O)CC(=O)O)CC(=O)O)CC(=O)O)[C@@H](CC(N)=O)C(=O)N[C@@H](CCCCNC(=O)CCCC[C@@H]1SC[C@@H]2NC(=O)N[C@@H]21)C(=O)N[C@H](C(=O)N1CCC[C@H]1C(=O)N[C@@H](CC(N)=O)C(=O)N[C@@H](CC(C)C)C(=O)N[C@@H](CCCNC(=N)N)C(=O)NCC(=O)N[C@@H](CC(=O)O)C(=O)N[C@@H](CC(C)C)C(=O)N[C@@H](CCC(N)=O)C(=O)N[C@H](C(=O)N[C@@H](CC(C)C)C(=O)N[C@@H](C)C(=O)N[C@@H](CCC(N)=O)C(=O)N[C@@H](CCCCN)C(=O)N[C@H](C(=O)N[C@@H](C)C(=O)N[C@@H](CCCNC(=N)N)C(=O)N[C@H](C(=O)O)[C@@H](C)O)C(C)C)C(C)C)C(C)C
fold change (FC) (Integrin alpha-V/beta-6 [1]): 1.05 | fold change (FC) (Integrin alpha-V/beta-6 [2]): 1.48 | Drug uptake [3]: Not Active

CC(C)C[C@H](NC(=O)[C@H](CC(=O)O)NC(=O)CNC(=O)[C@H](CCCNC(=N)N)NC(=O)[C@H](CC(C)C)NC(=O)[C@H](CC(N)=O)NC(=O)[C@@H]1CCCN1C(=O)[C@@H](NC(=O)[C@H](CCCCNC(=O)CCCC[C@@H]1SC[C@@H]2NC(=O)N[C@@H]21)NC(=O)[C@@H](N)CC(N)=O)C(C)C)C(=O)N[C@@H](CCC(N)=O)C(=O)N[C@H](C(=O)N[C@@H](CC(C)C)C(=O)N[C@@H](C)C(=O)N[C@@H](CCC(N)=O)C(=O)N[C@@H](CN)C(=O)N[C@H](C(=O)N[C@@H](C)C(=O)N[C@@H](CCCNC(=N)N)C(=O)N[C@H](C(=O)O)[C@@H](C)O)C(C)C)C(C)C
fold change (FC) (Integrin alpha-V/beta-6 [1]): 0.96 | fold change (FC) (Integrin alpha-V/beta-6 [2]): 0.79 | Drug uptake [3]: Not Active

CCC(CC)[C@H](NC(=O)[C@@H](NC(=O)[C@H](CCC(N)=O)NC(=O)[C@H](CC(C)C)NC(=O)[C@H](CC(=O)O)NC(=O)CNC(=O)[C@H](CCCNC(=N)N)NC(=O)[C@H](CC(C)C)NC(=O)[C@H](CC(N)=O)NC(=O)[C@@H]1CCCN1C(=O)[C@@H](NC(=O)[C@H](CCCCNC(=O)CCCC[C@@H]1SC[C@@H]2NC(=O)N[C@@H]21)NC(=O)[C@@H](N)CC(N)=O)C(C)C)C(C)C)C(=O)N[C@@H](C)C(=O)N[C@@H](CCC(N)=O)C(=O)N[C@@H](CCCCN)C(=O)N[C@H](C(=O)N[C@@H](C)C(=O)N[C@@H](CCCNC(=N)N)C(=O)N[C@H](C(=O)O)[C@@H](C)O)C(C)C
fold change (FC) (Integrin alpha-V/beta-6 [1]): 0.52 | fold change (FC) (Integrin alpha-V/beta-6 [2]): 0.7 | Drug uptake [3]: Not Active

CC(C)C[C@H](NC(=O)[C@H](CC(=O)O)NC(=O)CNC(=O)[C@H](CCCNC(=N)N)NC(=O)[C@H](CC(C)C)NC(=O)[C@H](CC(N)=O)NC(=O)[C@@H]1CCCN1C(=O)[C@@H](NC(=O)[C@H](CCCCNC(=O)CCCC[C@@H]1SC[C@@H]2NC(=O)N[C@@H]21)NC(=O)[C@H](CC(N)=O)NC(=O)CN1CCN(CC(=O)O)CCN(CC(=O)O)CCN(CC(=O)O)CC1)C(C)C)C(=O)N[C@@H](CCC(N)=O)C(=O)N[C@H](C(=O)N[C@@H](CC(C)C)C(=O)N[C@@H](C)C(=O)N[C@@H](CCC(N)=O)C(=O)N[C@@H](CCCCN)C(=O)N[C@H](C(=O)N[C@@H](C)C(=O)N[C@@H](CCCNC(=N)N)C(=O)N[C@H](C(=O)O)[C@@H](C)O)C(C)C)C(C)C
Activity [4]: inactive | Activity [5]: inactive | Drug uptake [3]: Not Active | Activity [6]: inactive
